Test [1] concerns the target T1, recombinant human liver glycogen phosphorylase (Homo sapiens, UniProt P06737).
T1 construct: made in house; host or cells: Sf9 insect cells (crude homogenate, diluted, used as the enzyme solution)
T1 sequence (P06737 1-847): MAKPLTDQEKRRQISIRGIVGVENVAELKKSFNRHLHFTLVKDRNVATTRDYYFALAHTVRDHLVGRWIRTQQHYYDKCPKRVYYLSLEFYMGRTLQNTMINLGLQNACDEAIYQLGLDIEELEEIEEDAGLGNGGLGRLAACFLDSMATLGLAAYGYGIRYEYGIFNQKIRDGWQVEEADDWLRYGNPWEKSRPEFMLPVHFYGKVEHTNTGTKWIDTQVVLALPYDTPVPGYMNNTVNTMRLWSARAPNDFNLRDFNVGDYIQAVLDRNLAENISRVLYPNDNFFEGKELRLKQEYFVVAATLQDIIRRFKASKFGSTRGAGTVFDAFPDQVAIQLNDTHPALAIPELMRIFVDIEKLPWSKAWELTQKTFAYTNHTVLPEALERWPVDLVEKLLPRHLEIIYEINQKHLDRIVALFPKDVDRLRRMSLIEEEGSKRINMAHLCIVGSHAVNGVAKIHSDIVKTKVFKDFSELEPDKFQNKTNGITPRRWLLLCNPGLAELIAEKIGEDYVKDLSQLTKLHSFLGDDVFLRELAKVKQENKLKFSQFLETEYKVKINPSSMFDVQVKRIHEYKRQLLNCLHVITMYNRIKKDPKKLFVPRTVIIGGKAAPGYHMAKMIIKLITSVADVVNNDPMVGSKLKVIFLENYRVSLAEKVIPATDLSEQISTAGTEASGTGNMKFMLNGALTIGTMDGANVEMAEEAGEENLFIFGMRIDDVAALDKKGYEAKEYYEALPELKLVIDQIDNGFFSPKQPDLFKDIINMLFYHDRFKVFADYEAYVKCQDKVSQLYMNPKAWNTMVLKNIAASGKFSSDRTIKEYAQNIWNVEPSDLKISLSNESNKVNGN
Kind of test: Measuring liver glycogen phosphorylase activity (forward reaction system, NADPH absorbance at 340 nm). The format is biochemical. In short, it runs like this: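 Compounds in 1% DMSO; activity taken as blank-subtracted 340 nm absorbance change across 75 min at room temperature. Forward reaction: glucose-1-phosphate released from glycogen converted by coupling enzymes, yielding NADPH; enzyme from recombinant Sf9 homogenate, reaction containing glucose, pH 6.8. IC50 from two-point linear interpolation.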

Test [2] relates to db/db mice. In words: Measuring blood plasma glucose concentration in db/db mice (hypoglycemic effect). Details: key: ++: compounds exhibiting statistically significant hypoglycemic effect at a dose of 10 mg/kg or less; +: compounds exhibiting not significant but obvious hypoglycemic effect at a dose of 10 mg/kg. Conditions: for vivo (hypoglycemic effect in db/db mice): db/db mice fasted 4 h, oral administration, plasma glucose 1 and 3 hours after administration, dose 10 mg/kg or less, Dunnett test vs solvent; for vivo (hypoglycemic effect): db/db mice, blood plasma glucose, dose of 10 mg/kg or less. The format is in vivo. The method, then:
2. Exemplary Test (2) Method for Measuring Blood Plasma Glucose Concentration
Using db/db mice representing an obesity type of diabetic model were used to examine the effect of compound (1) of the present invention on glucose concentrations in plasma. Plasma glucose concentrations of the db/db mice (9-18 weeks old) were measured, and the mice were divided into groups each of 5 or 8 mice such that there would be no difference in the average value of plasma glucose concentrations. After fasting for four hours, the example compound or the solvent (0.5% methylcellulose) was administered orally to the db/db mice, and plasma glucose concentrations were measured 1 and 3 hours after administration. The analysis of the hypoglycemic effect of the example compound was performed through a statistical test at every hour between the group receiving the solvent and the groups of example compound (Dunnett test).

The mark [3] stands for this setting: enzyme inhibitory activity with respect to liver glycogen phosphorylase, class symbols.
The mark [4] stands for this setting: human liver glycogen phosphorylase, class symbol.

With `CCOC(=O)CN(C(=O)c1cc(NC(=O)c2cc(F)c(F)cc2Cl)[nH]n1)c1ccccc1` [Example 4-4], the IC50 in test [1] (setting [3]) is under 100 nM. Moreover, the “vivo (hypoglycemic effect in db/db mice)” value in test [2] was “+”.
In the same order, the values of `O=C(NCCN1CCOCC1)c1cc(CNC(=O)c2cc(NC(=O)c3cc(F)c(F)cc3Cl)[nH]n2)ccn1` [Example 5-13] are under 100 nM and “+”.
For `COc1ccc(CN(CC2CC2)C(=O)c2cc(NC(=O)c3cc(F)c(F)cc3Cl)[nH]n2)cn1` [Example 1-128], in that order: under 100 nM and “+”.
In the case of `CCOc1ncccc1CNC(=O)c1cc(NC(=O)c2cc(F)c(F)cc2Cl)[nH]n1` [Example 3-41], the IC50 in test [1] (setting [3]) is under 100 nM. Further, the “vivo (hypoglycemic effect in db/db mice)” value in test [2] is “++”.
Turning to `CN(C(=O)c1cc(NC(=O)c2cc(F)c(F)cc2Cl)[nH]n1)c1ccc(-c2nsc(=O)[nH]2)cc1` [Example 6-16], the IC50 in test [1] (setting [4]) is under 100 nM. For the same compound, the “vivo (hypoglycemic effect)” value in test [2] is “+”.
Consider `O=C(Nc1cc(C(=O)N(Cc2ccccc2)c2ccccc2)n[nH]1)c1cc(F)c(F)cc1Cl` [Example 4-9], for which the IC50 in test [1] (setting [3]) is under 100 nM. Further, the “vivo (hypoglycemic effect in db/db mice)” value in test [2] is on record as “+”.
As for `O=C(Nc1cc(C(=O)N(Cc2cccnc2)C2CCCCC2)n[nH]1)c1cc(F)c(F)cc1Cl` [Example 1-91], in test [1] (setting [3]), the IC50 was under 100 nM. Moreover, the “vivo (hypoglycemic effect in db/db mice)” value in test [2] is listed as “+”.
In the same order, the values of `O=C(NCc1ccc(N2CCCCC2)nc1)c1cc(NC(=O)c2cc(F)c(F)cc2Cl)[nH]n1` [Example 5-24] are under 100 nM and “++”.
Regarding `COC(=O)c1ccc(CNC(=O)c2cc(NC(=O)c3cc(F)c(F)cc3Cl)[nH]n2)cc1` [Example 1-72], the IC50 in test [1] (setting [3]) was under 100 nM. In addition, the “vivo (hypoglycemic effect in db/db mice)” value in test [2] is given as “+”.
For the compound `COc1ncccc1CNC(=O)c1cc(NC(=O)c2cc(F)c(F)cc2Cl)[nH]n1` [Example 3-35], the IC50 in test [1] (setting [3]) was under 100 nM. Moreover, the “vivo (hypoglycemic effect in db/db mice)” value in test [2] is given as “++”.
In the same order, the values of `Cc1cnc(CNC(=O)c2cc(NC(=O)c3cc(F)c(F)cc3Cl)[nH]n2)cn1` [Example 5-35] are under 100 nM and “+”.
As to `CN(C(=O)c1cc(NC(=O)c2cc(F)c(F)cc2Cl)[nH]n1)C1CCCCC1` [Example 1-78], in test [1] (setting [3]), the IC50 is under 100 nM. Besides, the “vivo (hypoglycemic effect in db/db mice)” value in test [2] is on record as “+”.
For `COc1ccc(CNC(=O)c2cc(NC(=O)c3cc(F)c(F)cc3C)[nH]n2)cn1` [Example 5-2], in that order: under 100 nM and “+”.
With `O=C(NCc1ccc(N2CCC(O)CC2)nc1)c1cc(NC(=O)c2cc(F)c(F)cc2Cl)[nH]n1` [Example 1-138], the IC50 in test [1] (setting [3]) is under 100 nM. In addition, the “vivo (hypoglycemic effect in db/db mice)” value in test [2] is “+”.
In the same order, the values of `O=C(NCc1cccnc1Cl)c1cc(NC(=O)c2cc(F)c(F)cc2Cl)[nH]n1` [Example 2-24] are under 100 nM and “+”.
Take `CCOc1ccc(CNC(=O)c2cc(NC(=O)c3cc(F)c(F)cc3Cl)[nH]n2)cn1` [Example 1-37]: the IC50 in test [1] (setting [3]) was under 100 nM. Besides, the “vivo (hypoglycemic effect in db/db mice)” value in test [2] is recorded as “+”.
For `Cc1ccc(CNC(=O)c2cc(NC(=O)c3cc(F)c(F)cc3Cl)[nH]n2)c(Cl)n1` [Example 1-56], in that order: under 100 nM and “+”.
For `COc1cccc(CNC(=O)c2cc(NC(=O)c3cc(F)c(F)cc3Cl)[nH]n2)c1` [Example 1-67], in that order: under 100 nM and “+”.
In the case of `Nc1ccc(CNC(=O)c2cc(NC(=O)c3cc(F)c(F)cc3Cl)[nH]n2)cc1` [Example 3-31], the IC50 in test [1] (setting [3]) was under 100 nM. In test [2], the “vivo (hypoglycemic effect in db/db mice)” value is reported as “+”.
As to `CCCCN(C(=O)c1cc(NC(=O)c2cc(F)c(F)cc2Cl)[nH]n1)c1ccc(CC(=O)O)cc1` [Example 4-46], the IC50 in test [1] (setting [3]) was under 100 nM. Further, the “vivo (hypoglycemic effect in db/db mice)” value in test [2] is reported as “+”.
Regarding `Cc1ncoc1CNC(=O)c1cc(NC(=O)c2cc(F)c(F)cc2Cl)[nH]n1` [Example 1-2, 5-(2-chloro-4,5-difluoro-benzoylamino)-1H-pyrazole-3-carboxylic acid (4-methyl-oxazol-5-ylmethyl)-amide], the concentration for half-maximal inhibition (IC50) in test [1] (setting [3]) is under 100 nM. Besides, the “vivo (hypoglycemic effect in db/db mice)” value in test [2] was “++”.
Take `Cc1ncsc1CNC(=O)c1cc(NC(=O)c2cc(F)c(F)cc2Cl)[nH]n1.Cl` [Example 5-32]: the IC50 in test [1] (setting [3]) is under 100 nM. Also, the “vivo (hypoglycemic effect in db/db mice)” value in test [2] was “+”.
In the same order, the values of `COCCN(C(=O)c1cc(NC(=O)c2cc(F)c(F)cc2Cl)[nH]n1)C1CCCC1` [Example 1-98] are under 100 nM and “+”.
For the compound `COc1cccc(OC)c1CNC(=O)c1cc(NC(=O)c2cc(F)c(F)cc2Cl)[nH]n1` [Example 1-15], in test [1] (setting [3]), the IC50 was under 100 nM. The “vivo (hypoglycemic effect in db/db mice)” value in test [2] is recorded as “+”.
For `O=C(NCc1ccc(F)cc1F)c1cc(NC(=O)c2cc(F)c(F)cc2Cl)[nH]n1` [Example 1-19], the 50% inhibitory concentration (IC50) in test [1] (setting [3]) is under 100 nM. For the same compound, the “vivo (hypoglycemic effect in db/db mice)” value in test [2] was “+”.
Regarding `CN(C)C=Nc1ccc(CNC(=O)c2cc(NC(=O)c3cc(F)c(F)cc3Cl)[nH]n2)cc1.Cl` [Example 6-23], in test [1] (setting [4]), the IC50 is under 100 nM. The “vivo (hypoglycemic effect)” value in test [2] is “+”.
On to `CN(C(=O)c1cc(NC(=O)c2cc(F)c(F)cc2Cl)[nH]n1)c1ccc(C(=O)O)cc1` [Example 4-2, 5-(2-chloro-4,5-difluoro-benzoylamino)-1H-pyrazole-3-carboxylic acid (4-carboxyphenyl)-methyl-amide], for which the IC50 in test [1] (setting [3]) was under 100 nM. Besides, in test [2], the “vivo (hypoglycemic effect in db/db mice)” value is reported as “++”.
In the same order, the values of `O=C(NCc1ccc(OCC(F)(F)F)nc1)c1cc(NC(=O)c2cc(F)c(F)cc2Cl)[nH]n1` [Example 1-39] are under 100 nM and “+”.
`O=C(O)c1cccc(CNC(=O)c2cc(NC(=O)c3cc(F)c(F)cc3Cl)[nH]n2)c1` [Example 3-39]: the IC50 in test [1] (setting [3]) is under 100 nM. In addition, the “vivo (hypoglycemic effect in db/db mice)” value in test [2] is given as “+”.
For `COc1ccc(CN(C(=O)c2cc(NC(=O)c3cc(F)c(F)cc3Cl)[nH]n2)C2CC2)cn1` [Example 1-126], in that order: under 100 nM and “+”.
With `CN(C)c1ccc(CNC(=O)c2cc(NC(=O)c3cc(F)c(F)cc3Cl)[nH]n2)cn1` [Example 1-129], the IC50 in test [1] (setting [3]) was under 100 nM. The “vivo (hypoglycemic effect in db/db mice)” value in test [2] (10 mg/kg) is on record as “+”.
For the compound `COc1ccc(CN(C(=O)c2cc(NC(=O)c3cc(F)c(F)cc3Cl)[nH]n2)C2CCC2)cn1` [Example 1-127], the IC50 in test [1] (setting [3]) is under 100 nM. For the same compound, in test [2], the “vivo (hypoglycemic effect in db/db mice)” value is recorded as “+”.
For `CCN(CC)c1ccc(CNC(=O)c2cc(NC(=O)c3cc(F)c(F)cc3Cl)[nH]n2)cn1` [Example 5-29], in that order: under 100 nM and “++”.
For `Cc1cccc(CNC(=O)c2cc(NC(=O)c3cc(F)c(F)cc3Cl)[nH]n2)n1` [Example 2-11], in that order: under 100 nM and “+”.
For the compound `Cc1ccc(CNC(=O)c2cc(NC(=O)c3cc(F)c(F)cc3Cl)[nH]n2)cc1` [Example 1-69], in test [1] (setting [3]), the IC50 is under 100 nM. Also, in test [2], the “vivo (hypoglycemic effect in db/db mice)” value is “+”.
For the compound `CN(C)c1ccc(CNC(=O)c2cc(NC(=O)c3cc(F)c(F)cc3Cl)[nH]n2)cn1` [Example 5-27], in test [1] (setting [3]), the IC50 was under 100 nM. Further, the “vivo (hypoglycemic effect in db/db mice)” value in test [2] (10 mg/kg) is “++”.
As to `Cc1ncccc1CNC(=O)c1cc(NC(=O)c2cc(F)c(F)cc2Cl)[nH]n1` [Example 2-28], the IC50 in test [1] (setting [3]) was under 100 nM. In test [2], the “vivo (hypoglycemic effect in db/db mice)” value is recorded as “+”.
